From ChEMBL document CHEMBL1130363, “Design and synthesis of hapten to induce phospholipase A2-like catalytic antibody” (Bioorg Med Chem Lett, 1997)

Target: T1, Lysosomal phospholipase A and acyltransferase (Homo sapiens, UniProt Q8NCC3)
T1 sequence (Q8NCC3 whole entry): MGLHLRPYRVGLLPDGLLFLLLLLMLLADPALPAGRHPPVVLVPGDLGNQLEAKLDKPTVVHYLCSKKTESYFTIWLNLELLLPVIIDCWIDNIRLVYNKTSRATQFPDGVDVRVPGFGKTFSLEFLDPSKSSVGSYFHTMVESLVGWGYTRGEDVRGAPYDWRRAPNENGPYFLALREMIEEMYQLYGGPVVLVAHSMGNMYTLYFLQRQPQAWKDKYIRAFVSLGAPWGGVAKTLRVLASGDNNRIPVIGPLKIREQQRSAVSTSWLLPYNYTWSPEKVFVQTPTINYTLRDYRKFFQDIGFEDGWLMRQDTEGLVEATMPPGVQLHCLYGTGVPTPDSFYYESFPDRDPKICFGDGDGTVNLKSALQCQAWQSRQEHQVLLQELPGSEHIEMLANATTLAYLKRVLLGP
Assay: Inhibitory activity against phospholipase A2 enzyme

IC50: 9.75 mM
SMILES: CCCCCCCCCCP(=O)(O)OC(COCCCCCCCCCC(=O)OC)COP(=O)([O-])OCC[N+](C)(C)C (stereo unspecified) [ESTER OF PHOSPHOLIPID]
